Results from US11999727B2 (Tango Therapeutics, Inc., priority 2020, dated 2024).
Where two headings read alike, the source gives them in different places.

Experiments:
[1] = test system: HAP1 MTAP-deleted cell line; experiment: SDMA in-cell western assay, HAP1 MTAP-deleted; assay type: cell-based; conditions: for IC50: Homo sapiens; for MTAP intact/deleted ratio: IC50 ratio HAP1 MTAP-intact / HAP1 MTAP-deleted, SDMA in-cell western
Outline: (§1)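 MTAP-null vs endogenous-MTAP HAP1 isogenic cells; in-cell western SDMA readout; IC50 per line.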

PRMT5 [2] = target: T1, PRMT5 (Homo sapiens, UniProt O14744); experiment: PRMT5 biochemical IC50 assay with no cofactor; conditions: PRMT5, no cofactor
T1 construct: purchased Viva (custom protein)
T1 sequence (O14744 whole entry): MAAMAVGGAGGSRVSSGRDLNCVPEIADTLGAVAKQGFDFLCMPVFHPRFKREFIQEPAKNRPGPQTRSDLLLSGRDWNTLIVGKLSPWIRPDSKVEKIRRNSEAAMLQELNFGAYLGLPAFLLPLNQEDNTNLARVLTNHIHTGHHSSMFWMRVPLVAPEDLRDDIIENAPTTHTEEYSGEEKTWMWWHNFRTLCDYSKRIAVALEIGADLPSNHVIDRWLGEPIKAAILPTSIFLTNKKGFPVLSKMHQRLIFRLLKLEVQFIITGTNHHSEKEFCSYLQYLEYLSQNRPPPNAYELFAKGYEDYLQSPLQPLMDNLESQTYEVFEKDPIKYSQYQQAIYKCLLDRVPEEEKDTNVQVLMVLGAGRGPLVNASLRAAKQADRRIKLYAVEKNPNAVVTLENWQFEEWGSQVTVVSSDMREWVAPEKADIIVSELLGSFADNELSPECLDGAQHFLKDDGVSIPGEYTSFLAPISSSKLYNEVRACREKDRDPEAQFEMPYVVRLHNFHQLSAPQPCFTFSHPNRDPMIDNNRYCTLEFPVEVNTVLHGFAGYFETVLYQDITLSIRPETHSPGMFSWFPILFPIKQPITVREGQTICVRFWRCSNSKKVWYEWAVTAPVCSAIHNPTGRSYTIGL
T1 sequence (Q9BQA1 whole entry partner): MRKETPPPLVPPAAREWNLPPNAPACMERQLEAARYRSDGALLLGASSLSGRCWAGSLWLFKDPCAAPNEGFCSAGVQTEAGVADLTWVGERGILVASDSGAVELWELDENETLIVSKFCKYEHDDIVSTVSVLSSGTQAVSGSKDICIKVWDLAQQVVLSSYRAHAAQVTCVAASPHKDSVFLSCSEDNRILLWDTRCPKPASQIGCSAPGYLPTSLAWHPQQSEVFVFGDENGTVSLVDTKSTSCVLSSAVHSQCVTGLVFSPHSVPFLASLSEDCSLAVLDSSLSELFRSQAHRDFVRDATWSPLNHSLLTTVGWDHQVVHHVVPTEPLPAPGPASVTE
From the text: Table 1 indicates IC50 values (μM) against PRMT5 for exemplary compounds in the presence of SAM as cofactor, with no cofactor, and with MTA as cofactor, respectively (columns 4-6). […] Ki values can be calculated from the IC50 values as described in the Examples section. As detailed in the Examples section, for the assay performed in the presence of SAM, IC50=Ki×1.5 (Ki=IC50/1.5).

PRMT5 [3] = target: T1, PRMT5; experiment: PRMT5 biochemical IC50 assay with MTA as cofactor; conditions: PRMT5, MTA as cofactor; read-out: MTA IC50
PRMT5 [4] = target: T1, PRMT5; experiment: PRMT5 biochemical IC50 assay with SAM as cofactor; conditions: PRMT5, SAM as cofactor; read-out: SAM IC50
[5] = test system: HAP1 MTAP-intact cell line; experiment: SDMA in-cell western assay, HAP1 MTAP-intact; assay type: cell-based; conditions: Homo sapiens
Outline: as §1

[6] = test system: HAP1 MTAP-deleted cell line; experiment: Viability assay, MTAP-deleted cell line; assay type: cell-based; conditions: Homo sapiens
From the text: Table 1 additionally indicates IC50 values in a viability assay for the MTAP-deleted cell line (column 10), indicating the effect of treatment with compound on cell survival.

[7] = HAP1, SDMA in-cell western, HAP1 MTAP-deleted, read-out: HAP1 MTAP deleted IC50
[8] = HAP1, SDMA in-cell western, HAP1 MTAP-intact, read-out: MTAP HAP1 intact IC50
[9] = HAP1, viability assay, MTAP-deleted cell line, read-out: HAP1 MTAP deleted viability
[10] = HAP1, SDMA in-cell western, HAP1 MTAP-deleted, read-out: HAP 1 MTAP deleted IC50
[11] = HAP1, viability IC50, MTAP-deleted cell line, read-out: HAP1 MTAP deleted viability
[12] = HAP1, viability assay, HAP1 MTAP-deleted, read-out: HAP1 MTAP deleted viability
[13] = read-out: No Cofactor/ rel IC50

Structure (SMILES) | IC50 [1, 7] | IC50 (PRMT5 [2]; read-out: No Cofactor/rel IC50) | IC50 (PRMT5 [3]) | IC50 (PRMT5 [4]) | IC50 [5, 8] | IC50 [1, 10] | IC50 (PRMT5 [2]; [13]) | MTAP intact/deleted ratio [1] | IC50 [6, 9] | IC50 [6, 11] | IC50 [6, 12] | IC50 ([1]; HAP1, read-out: HAP1 MTAP deleted IC50) | IC50 ([5]; HAP1, read-out: MTAP HAP1 intact IC50) | IC50 ([6]; HAP1, read-out: HAP1 MTAP deleted viability)
Cc1cc(NC(=O)C(=O)N2CCCCC2C2CCC(F)(F)CC2)cnc1N (stereo not shown) [Compound 186, N-(6-amino-5-methyl-3-pyridyl)-2-[2-(4,4-difluorocyclohexyl)-1-piperidyl]-2-oxo-acetamide] | 100 to 1000 nM | 50 to 500 nM | 50 to 500 nM | 50 to 500 nM | > 1000 nM | – | – | A (an IC50 ratio greater than or equal to 10 fold) | > 10000 nM | – | – | – | – | –
C[C@@H]1CCC[C@@H]2CN(C(=O)C(=O)Nc3cncc(C(N)=O)c3)CC[C@@H]21 (racemic) [Compound 536, 5-(2-(5-methyloctahydroisoquinolin-2(1H)-yl)-2-oxoacetamido)nicotinamide] | – | > 500 nM | 50 to 500 nM | 50 to 500 nM | > 1000 nM | 100 to 1000 nM | – | A (an IC50 ratio greater than or equal to 10 fold) | – | > 10000 nM | – | – | – | –
CC(=O)N[C@H]1CCN(C(=O)C(=O)Nc2cncc(C(N)=O)c2)[C@@H](c2ccccc2)C1 (racemic) [Compound 745, 5-[[2-[(2R,4S)-4-acetamido-2-phenyl-1-piperidyl]-2-oxo-acetyl]amino]pyridine-3-carboxamide] | > 1000 nM | > 500 nM | 50 to 500 nM | > 500 nM | > 1000 nM | – | – | C (an IC50 ratio of less than 3 fold) | – | – | > 10000 nM | – | – | –
Cc1cc(NC(=O)C(=O)N2CCCCC2C2CCCCC2)cnc1N (stereo not shown) [Compound 30, N-(6-amino-5-methyl-3-pyridyl)-2-[2-cyclohexyl-1-piperidyl]-2-oxo-acetamide] | – | – | 50 to 500 nM | 50 to 500 nM | > 1000 nM | 100 to 1000 nM | 50 to 500 nM | A (an IC50 ratio greater than or equal to 10 fold) | > 10000 nM | – | – | – | – | –
NC(=O)c1cncc(NC(=O)C(=O)N2CCCCC2C2CCCCC2)c1 (stereo not shown) [Compound 101, 5-(2-(2-cyclohexylpiperidin-1-yl)-2-oxoacetamido)nicotinamide] | – | – | < 50 nM | 50 to 500 nM | > 1000 nM | < 100 nM | 50 to 500 nM | A (an IC50 ratio greater than or equal to 10 fold) | > 10000 nM | – | – | – | – | –
Cc1cc(NC(=O)C(=O)N2CCCCC2C(C)C)cnc1N (racemic) [Compound 135, N-(6-amino-5-methyl-3-pyridyl)-2-(2-isopropyl-1-piperidyl)-2-oxo-acetamide] | – | – | < 50 nM | 50 to 500 nM | > 1000 nM | 100 to 1000 nM | 50 to 500 nM | A (an IC50 ratio greater than or equal to 10 fold) | > 10000 nM | – | – | – | – | –
CC(=O)Nc1ccc([C@@H]2CC[C@@H](C)CN2C(=O)C(=O)Nc2cnc(N)c(C)c2)cc1 (single isomer, unassigned) [Compound 527] | < 100 nM | < 50 nM | < 50 nM | 50 to 500 nM | 100 to 1000 nM | – | – | A (an IC50 ratio greater than or equal to 10 fold) | < 1000 nM | – | – | – | – | –
COc1ncc(NC(=O)C(=O)N2C[C@@H](C)CC[C@@H]2c2ccc3scnc3c2)cc1C(N)=O (single isomer, unassigned) [Compound 602] | – | < 50 nM | < 50 nM | < 50 nM | – | – | – | A (an IC50 ratio greater than or equal to 10 fold) | – | – | – | < 100 nM | 100 to 1000 nM | < 1000 nM
COc1ncc(NC(=O)C(=O)N2C[C@H](C)CC[C@H]2c2ccc3[nH]c(=O)ccc3c2)cc1C(N)=O (single isomer, unassigned) [Compound 810] | > 1000 nM | > 500 nM | > 500 nM | > 500 nM | > 1000 nM | – | – | B (an IC50 ratio greater than or equal to 3 fold but lower than 10 fold) | – | – | > 10000 nM | – | – | –
CCc1cc(NC(=O)C(=O)N2C[C@@H](C)CC[C@@H]2c2ccc3c(c2)CCC(=O)N3)cnc1N (single isomer, unassigned) [Compound 729] | 100 to 1000 nM | > 500 nM | > 500 nM | > 500 nM | > 1000 nM | – | – | A (an IC50 ratio greater than or equal to 10 fold) | – | – | 1000 to 10000 nM | – | – | –
COc1ncc(NC(=O)C(=O)N2C[C@@H](C)C(F)(F)C[C@@H]2c2ccc(C)nc2)cc1C(N)=O (single isomer, unassigned) [Compound 908] | – | 50 to 500 nM | < 50 nM | 50 to 500 nM | > 1000 nM | < 100 nM | – | A (an IC50 ratio greater than or equal to 10 fold) | 1000 to 10000 nM | – | – | – | – | –
CNc1nc2cc([C@H]3CC[C@H](C)CN3C(=O)C(=O)Nc3cnc(OC)c(C(N)=O)c3)ccc2s1 (single isomer, unassigned) [Compound 863] | < 100 nM | < 50 nM | < 50 nM | 50 to 500 nM | > 1000 nM | – | – | A (an IC50 ratio greater than or equal to 10 fold) | – | – | < 1000 nM | – | – | –
CNc1nc2cc([C@H]3CC[C@H](C)CN3C(=O)C(=O)Nc3cnc(N)c(C)c3)ccc2s1 (single isomer, unassigned) [Compound 852] | < 100 nM | < 50 nM | < 50 nM | 50 to 500 nM | 100 to 1000 nM | – | – | A (an IC50 ratio greater than or equal to 10 fold) | – | – | < 1000 nM | – | – | –

More lines, main results first:

IC50 [1, 7] | IC50 (PRMT5 [2]; read-out: No Cofactor/rel IC50) | IC50 (PRMT5 [3]) | IC50 (PRMT5 [4]) | IC50 [5, 8] | IC50 [1, 10] | IC50 (PRMT5 [2]; [13]) | Structure (SMILES) | MTAP intact/deleted ratio [1] | IC50 [6, 9] | IC50 [6, 11] | IC50 [6, 12] | IC50 ([1]; HAP1, read-out: HAP1 MTAP deleted IC50) | IC50 ([5]; HAP1, read-out: MTAP HAP1 intact IC50) | IC50 ([6]; HAP1, read-out: HAP1 MTAP deleted viability)
– | – | 50 to 500 nM | > 500 nM | > 1000 nM | > 1000 nM | > 500 nM | Cc1cncc(NC(=O)C(=O)N2C[C@H](C)CC[C@H]2c2ccc3ccccc3c2)c1 (racemic) [Compound 83, rac-2-((2R,5S)-5-methyl-2-(naphthalen-2-yl)piperidin-1-yl)-N-(5-methylpyridin-3-yl)-2-oxoacetamide] | C (an IC50 ratio of less than 3 fold) | > 10000 nM | – | – | – | – | –
< 100 nM | 50 to 500 nM | 50 to 500 nM | 50 to 500 nM | > 1000 nM | – | – | C[C@@H]1CC[C@@H](c2ccc(F)c(Cl)c2)N(C(=O)C(=O)Nc2cncc(C(N)=O)c2)C1 (racemic) [Compound 338, rac-5-{2-[(2R,5S)-2-(3-Chloro-4-fluorophenyl)-5-methylpiperidin-1-yl]-2-oxoacetamido}pyridine-3-carboxamide] | A (an IC50 ratio greater than or equal to 10 fold) | 1000 to 10000 nM | – | – | – | – | –
– | – | 50 to 500 nM | 50 to 500 nM | > 1000 nM | 100 to 1000 nM | 50 to 500 nM | CC(=O)Nc1ccc([C@@H]2CC[C@@H](C)CN2C(=O)C(=O)Nc2cncc(C)c2)cc1 (racemic) [Compound 111, 2-[(2R,5S)-2-(4-acetamidophenyl)-5-methyl-1-piperidyl]-N-(5-methyl-3-pyridyl)-2-oxo-acetamide] | A (an IC50 ratio greater than or equal to 10 fold) | > 10000 nM | – | – | – | – | –
> 1000 nM | > 500 nM | > 500 nM | > 500 nM | > 1000 nM | – | – | C[C@@H]1CC[C@@H](c2ccc(O)c(F)c2)N(C(=O)C(=O)Nc2cncc(C(N)=O)c2)C1 (single isomer, unassigned) [Compound 355] | C (an IC50 ratio of less than 3 fold) | > 10000 nM | – | – | – | – | –
– | 50 to 500 nM | 50 to 500 nM | 50 to 500 nM | > 1000 nM | > 1000 nM | – | CNS(=O)(=O)c1ccc([C@@H]2CC[C@@H](C)CN2C(=O)C(=O)Nc2cncc(C(N)=O)c2)cc1 (racemic) [Compound 652, rac 5-[[2-[(2S,5R)-5-methyl-2-[4-(methylsulfamoyl)phenyl]-1-piperidyl]-2-oxo-acetyl]amino]pyridine-3-carboxamide] | C (an IC50 ratio of less than 3 fold) | – | > 10000 nM | – | – | – | –
100 to 1000 nM | > 500 nM | 50 to 500 nM | 50 to 500 nM | > 1000 nM | – | – | C[C@@H]1CC[C@H](c2ccc(NCC(=O)N(C)C)cc2)N(C(=O)C(=O)Nc2cncc(C(N)=O)c2)C1 (racemic) [Compound 422, 5-[[2-[(2R,5R)-2-[4-[[2-(Dimethylamino)-2-oxo-ethyl]amino]phenyl]-5-methyl-1-piperidyl]-2-oxo-acetyl]amino]pyridine-3-carboxamide] | A (an IC50 ratio greater than or equal to 10 fold) | > 10000 nM | – | – | – | – | –
